In assay [1] the test system is Wild type Saccharomyces cerevisiae cells (strain BY4741). In words: Growth of yeast cells in the presence or absence of VPA and/or NaCl (absorbance at 550 nm). The note with it: single agent (VPA or NaCl) in synthetic medium, 30° C. The assay is classed as cell-based. How it is done:
The combined effect of osmotic stress and valproate (VPA) is deleterious to yeast cells. Wild type Saccharomyces cerevisiae cells (strain BY4741) were grown in synthetic medium in the presence or absence of VPA and/or NaCl. Cells were incubated at 30° C., and growth was monitored spectrophotometrically by measuring absorbance at 550 nm.

The test system of assay [2] is Candida albicans (Strain Sc 5314). In words: Hyphae formation in Candida cells, serum-induced (percentage of cells forming hyphal structures). Type of assay: cell-based. The settings on record: in the presence of VPA. How it is done: Hyphae formation is at its peak after 3 hours of incubation at 37° C. at 200 rpm. An overnight culture of Candida albicans (Strain Sc 5314) was prepared using serum-free RPMI-64 medium. Cells were pelleted at 7,500×g and resuspended in RPMI-64 supplemented with 10% Fetal Bovine Serum (FBS) to induce hyphae formation. Cultures were incubated at 37° C. in a rotary shaker at 200 rpm. Samples were drawn out at one-hour intervals and observed for development of hyphal structures.
An overnight culture of C. albicans was prepared using serum-free RPMI-64 medium. Cells were pelleted at 7,500×g and resuspended in RPMI-64/10% FBS with or without 0.1M NaCl and/or 2 mM VPA as indicated. Cultures were incubated at 37° C. in a rotary shaker at 200 rpm for 3 hours. For each sample, 300-500 cells were counted and the percentage of cells forming hyphal structures was calculated. Values represent the mean of three independent experiments±S.E. (error bars).
An overnight culture of C. albicans was prepared using serum-free RPMI-64 medium. Cells were pelleted at 7,500×g and resuspended in RPMI-64/10% FBS with or without 0.1M sorbitol and/or 2 mM VPA as indicated. Cultures were incubated at 37° C. in a rotary shaker at 200 rpm for 3 hours. For each sample, 300-500 cells were counted and the percentage of cells forming hyphal structures was calculated. […]

The values that follow come from patent US10617659B2, “Valproate as a topical anti-fungal treatment” (Wayne State University, priority 2016, dated 2020).

In assay [1], `[Cl-].[Na+]` [NaCl, sodium chloride] returned a Growth decreased of 50%. In assay [1], `CCCC(CCC)C(=O)O` [VPA, Valproic acid (di-n-propyl acetic acid)] gave a Growth decreased of 50%. The “Transformation of Candida yeast cells into hyphae forming cells” value in assay [2] is listed as “greatly reduced”.
